Here are results for 84 compounds from ChEMBL document CHEMBL1157539, “Thousands of chemical starting points for antimalarial lead identification” (Nature, 2010).

One assay concerns Plasmodium falciparum. The assay is described as follows: GSK_TCMDC: Inhibition of Plasmodium falciparum 3D7 in whole erythrocytes, using parasite LDH activity as an index of growth. It is filed as functional, organism-based.
Details: not given
`C#CCOc1ccc(CC(C)NCC(O)c2cccc(C(F)(F)F)c2)cc1` (stereo not drawn) had an XC50 of 1.19 µM. In turn, `O=C(Nc1ccc(Cn2ncc(N3CCCNCC3)c(Cl)c2=O)cc1)Nc1ccc(-c2ccccc2)cc1` showed an XC50 of 0.815 µM.

`Cc1[nH]c2cc(F)ccc2c(=O)c1Cc1ccc(Cl)cc1.Cc1[nH]c2cccc(F)c2c(=O)c1Cc1ccc(Cl)cc1` displayed an XC50 of 0.232 µM. With `O=C(/C=C/c1ccccc1Cl)NC1CCC(CN2CCC(c3c[nH]c4ccccc34)CC2)CC1` (stereo not drawn), the XC50 was 0.849 µM. Regarding `Cc1ccc(C)c(C=CC(=O)NC2CCC(CN3CCC(c4c[nH]c5ccccc45)CC3)CC2)c1` (stereo not drawn), the XC50 amounted to 0.698 µM.

Staying with this assay, now noted: Plasmodium falciparum, 3D7.
`CNc1nc(N/N=C/c2cc([N+](=O)[O-])c(Cl)cc2Cl)nc(Nc2cccc(C(F)(F)F)c2)n1` displayed an XC50 of 0.729 µM. On the same count and under the same terms, the value for `CCC(C)NC(=O)Nc1cccc(-c2cccc(-c3nc4cccc(C)c4[nH]3)c2)c1` (stereo not drawn) was 0.809 µM; that for `Cc1cc(I)ccc1Nc1nc2nonc2nc1Nc1ccc(I)cc1C` was 0.51 µM; that for `Cn1cc(C(=O)Nc2cccc(-c3cccc(-c4nc5ccccc5[nH]4)c3)c2)n(C)c1=O` was 0.715 µM. The compound `Cc1cccc(-c2nn(-c3ccccc3)cc2C(=O)Nc2nnc(C)o2)c1` came in with an XC50 of 1.16 µM. `CCCc1ccc(C(=O)N2C(c3nccs3)C(C(N)=O)CC2(CC(C)C)C(=O)O)cc1` (stereo not drawn): the XC50 came to 0.156 µM. For `Cc1nn(CC(C)C)c2sc(C(=O)Nc3nc(-c4ccccn4)cs3)cc12`, the XC50 came to 0.961 µM.

`C[C@H](Cc1ccc(CCc2ccc(C[C@@H](C)NC[C@H](O)c3cccc(Cl)c3)cc2)cc1)NC[C@H](O)c1cccc(Cl)c1`: the XC50 is 0.935 µM.

`CN(C)CC(=O)Nc1ccc(Nc2nccc(NCC(O)c3ccccc3)n2)cc1` (stereo not drawn) yielded an XC50 of 0.973 µM.

On to `Cc1cc(OCCCNC(=N)c2ccc3ccccc3c2)c(C(C)C)cc1Cl`, for which the XC50 stood at 0.973 µM.

With `COc1ccc2c(c1C1CCN(CCCCNC(=O)c3ccc(-c4ccc(Cl)cn4)cc3)CC1)CCCC2`, the XC50 was determined as 1.02 µM. Take `CN1CCN(Cc2ccc(-c3ccc4c(Nc5ccc(Oc6ccccn6)cc5)ccnc4c3)o2)CC1`: the XC50 is 0.145 µM. For the compound `CN1CCN(c2ccnc3ccc(NC(=O)Cc4ccc(Br)c5ccccc45)cc23)CC1`, the XC50 turned out to be 0.807 µM.

For `COc1cccc(-c2cnc(-c3ccncc3)nc2C2CCN(Cc3ccc(NC(C)=O)cc3)CC2)c1`, the XC50 stood at 1.5 µM.

In turn, `CC(=O)c1ccc(-n2ccnc2)cc1` registered an XC50 of 0.852 µM. As to `COc1cc(Cc2cnc(N)nc2N)ccc1OCc1ccc(-c2csnn2)cc1`, the XC50 amounted to 0.628 µM. On the same count and under the same terms, the value for `O=c1cc(NCCCNCc2sc(Br)c(Br)c2Br)[nH]c2ccccc12` was 1.01 µM. Take `C#CCOc1ccc(CC(C)NCC(O)c2cccc(C(F)(F)F)c2)cc1` (stereo not drawn): the XC50 came to 1.03 µM. On to `CC(=O)Nc1ccc(C(=O)Nc2cccc(-c3ccc(-c4nc5ccccc5[nH]4)s3)c2)cn1`, for which the XC50 is 0.18 µM.

`Cc1noc(C)c1-c1ccc2c(Nc3ccccc3C(C)(C)C)c(C(=O)NCc3ccc(OC(C)C)cc3)cnc2c1` displayed an XC50 of 0.908 µM. Consider `COc1cc2ncnc(Nc3ccc(OCc4ccccc4Br)c(Cl)c3)c2cc1OC`, for which the XC50 was 1.28 µM. Consider `O=C(Nc1ccc(-c2nc3ccccc3[nH]2)cc1)C1CCN(Cc2cccc(F)c2F)CC1`, for which the XC50 turned out to be 1.1 µM.

In turn, `CC(Cc1ccc(NC(=O)COc2ccc(CC(C)NCCc3cccc(Cl)c3)cc2)cc1)NCCc1cccc(Cl)c1` (stereo not drawn) gave an XC50 of 0.0843 µM. Turning to `CCC1(CC)NC(N)=NC(=N)N1OCc1ccc(Cl)c(Cl)c1`, the XC50 was determined as 0.0585 µM.

In the case of `O=C(C=Cc1ccc(-c2ccccc2)cc1)N1CCC(CCN2CCC(c3c[nH]c4ccccc34)CC2)CC1`, the XC50 was determined as 1.12 µM. As to `CCCCCC(C)(C)NC[C@@H](O)[C@H](Cc1ccccc1)NC(=O)c1cc(NCC)cc(N2CCCC2=O)c1`, the XC50 worked out at 0.674 µM. `Cc1cc(NCCCCCCN)nc(Nc2ccc(Cl)cc2)n1` displayed an XC50 of 0.448 µM. Turning to `Cn1cncc1C(=O)Nc1cccc(-c2cccc(-c3nc4ccccc4[nH]3)c2)c1`, the XC50 came out at 0.635 µM. As for `N#Cc1ccc(CN2CCCN(c3ccc(NC(=O)c4ccc(F)cc4)cc3)CC2)cc1`, the XC50 was 1.28 µM.

`CCCC(C)Nc1nc(C)cc(N[C@@H](CC(C)C)C(=O)Nc2ccc(OC)cc2)n1` (stereo partly drawn) registered an XC50 of 0.866 µM. For the compound `N#Cc1ccc(C=CC(=O)NC2CCC(CCN3CCc4ccc(-c5cnccn5)cc4CC3)CC2)cc1` (stereo not drawn), the XC50 turned out to be 0.613 µM. `COc1ccc(S(=O)(=O)NC2CCN(CCCOc3ccnc4cc(Cl)ccc34)C2)cc1OC` (stereo not drawn) gave an XC50 of 1.05 µM. As to `CN1CCN(c2ccnc3ccc(NC(=O)Nc4ccc5ccccc5c4)cc23)CC1`, the XC50 amounted to 0.0766 µM. `CN1CCN(Cc2ccc(-c3ccc4c(Nc5ccc(Oc6ccccc6)cc5)ccnc4c3)o2)CC1` yielded an XC50 of 0.177 µM. For `O=C(/C=C/c1ccc(Cl)c(Cl)c1)NC1CCC(CN2CCC(c3nc4cc(O)ccc4[nH]3)CC2)CC1` (stereo not drawn), the XC50 was 0.241 µM. For `c1cc(CN2CCN(c3ccncc3)CC2)cc(-c2ccc(-c3nc4ccccc4[nH]3)s2)c1`, the XC50 came to 0.148 µM.

For `CCNc1cc(C(=O)NC(Cc2ccccc2)C(O)CNC2CCSCC2)cc(N2CCCC2=O)c1` (stereo not drawn), the XC50 is 0.133 µM. With `CCCCCCN1CCN(Cc2cccc(NC(=O)c3cc4ccccc4o3)c2)CC1`, the XC50 is 0.909 µM.

For `Cc1[nH]c2cc(F)ccc2c(=O)c1Cc1ccc(Cl)cc1.Cc1[nH]c2cccc(F)c2c(=O)c1Cc1ccc(Cl)cc1`, the XC50 came out at 0.348 µM. Turning to `CN1CCCN(Cc2ccc(-c3ccc(NS(=O)(=O)c4cccc5cccnc45)cc3)cc2)CC1`, the XC50 was 0.694 µM.

Consider `CCOC(=O)c1c[nH]c2c(sc3cc(OC)ccc32)c1=O`, for which the XC50 was 0.387 µM. As for `CCN(CC)CCCN1CCN(C(=O)c2cccc(-c3noc(C(F)(F)F)n3)c2)CC1`, the XC50 is 0.154 µM. Compound `O=c1cc(NCCCNCc2ccc(Cl)c(Cl)c2)[nH]c2ccc(Cl)cc12` returned an XC50 of 0.344 µM. Turning to `c1cc(CN2CCN(CCN3CCOCC3)CC2)cc(-c2cccc(-c3nc4ccccc4[nH]3)c2)c1`, the XC50 worked out at 0.236 µM. `Cc1ccc(C(=O)Nc2ccc(Nc3ccnc4cc(-c5ccccn5)ccc34)cc2O)cc1` returned an XC50 of 0.111 µM.

As for `CCCCCc1ccc(NC(=O)Nc2ccc(Cn3ncc(N4CCCNCC4)c(Cl)c3=O)cc2)cc1`, the XC50 amounted to 1.14 µM. `N#Cc1ccc2c(c1)CCN(CCCn1c(-c3ccc4ccccc4c3)nc3ccncc31)CC2`: the XC50 was found to be 0.198 µM. Regarding `CN1CCC(N2CCN(Cc3cccc(-c4ccc(-c5nc6cc(C(F)(F)F)ccc6[nH]5)cc4)c3)CC2)CC1`, the XC50 amounted to 0.14 µM. Compound `O=C(/C=C/c1ccccc1Cl)NC1CCC(CN2CCC(c3c[nH]c4ccccc34)CC2)CC1` (stereo not drawn) displayed an XC50 of 0.603 µM. Compound `O=C(NCCCCN1CCC(c2ccc3c(c2OCc2ccncc2)CCCC3)CC1)c1ccc(NC(=O)c2ccc(Cl)cc2)cc1` yielded an XC50 of 0.218 µM. Compound `CN1CCN(c2nc(NCCc3ccc(O)cc3)nc(NCc3ccccc3-c3ccc(C(F)(F)F)cc3)n2)CC1` gave an XC50 of 0.971 µM. Same read-out and setting: the value for `Oc1ccc2ccccc2c1C=NNc1nc(=Nc2ccccc2)nc(N2CCOCC2)[nH]1` was 0.885 µM; that for `COc1ccc(NC(=O)Nc2ccc(-c3ccccc3)cc2)cc1Cn1nc(Cl)c(N2CCCNCC2)cc1=O` was 0.364 µM. Regarding `O=C(CSc1nccn1Cc1ccco1)Nc1cc(C(F)(F)F)ccc1Cl`, the XC50 came to 0.822 µM. `N#Cc1ccc(CN2CCCN(Cc3cccc(NC(=O)c4ccc(Cl)c(Cl)c4)c3)CC2)cc1` registered an XC50 of 0.85 µM. `Nc1ccc2[nH]cc(C3CCN(CCC4CCN(C(=O)/C=C/c5ccc(Cl)c(Cl)c5)CC4)CC3)c2n1` yielded an XC50 of 0.737 µM. Turning to `O=S(=O)(NCCN1CCCC1)c1ccc(-c2ccc(CNCc3ccsc3)cc2)cc1F`, the XC50 was determined as 0.81 µM. As to `Cc1cc(N[C@@H](Cc2ccccc2)C(=O)NC2CCCC2)nc(Nc2ccccc2)n1`, the XC50 is 0.828 µM. In turn, `O=C(NCCCCN1CCN(c2ccc3c(c2)CCC3)CC1)c1ccc(NC(=O)c2ccc(Cl)cc2)cc1` displayed an XC50 of 0.677 µM.

Compound `Cc1ccc(O)c(-c2cc(C(=O)Nc3ccc(S(=O)(=O)N4CCCCCC4)cc3)[nH]n2)c1` yielded an XC50 of 0.711 µM. On to `c1cc(-c2ccc(CNCCCn3ccnc3)cc2)cc(-c2nc3ccccc3[nH]2)c1`, for which the XC50 was determined as 0.113 µM.

The compound `N#CCCN1CCN(Cc2cccc(-c3ccc(-c4nc5cc(C(F)(F)F)ccc5[nH]4)cc3)c2)CC1` showed an XC50 of 0.744 µM.

In the case of `Cc1cccc2nc(-c3cccc(-c4cccc(CNCCNC(=O)c5ccnn5C)c4)c3)[nH]c12`, the XC50 was 0.192 µM. The same measure, in the same setting: the value for `CCCCCCOc1ccc(/C(N)=N\Cc2ccccc2)c2c1CCCC2` was 1.27 µM. Turning to `COc1ccc2nc(C)cc(N/N=C/C=C/c3ccccc3)c2c1`, the XC50 is 0.701 µM. `CC(C)CCNC(=O)C1Cc2c([nH]c3ccc(Br)cc23)C2(CCN(Cc3ccccc3)CC2)N1` (stereo not drawn) came in with an XC50 of 0.817 µM. For the compound `CC1(C)NC(N)=NC(=N)N1OCCc1ccc(N)cc1`, the XC50 came out at 0.0032 µM. As for `CCc1c(CCNCCCCCCNCCc2ccc(Br)cc2)ccc(OC)c1OC`, the XC50 amounted to 0.232 µM. `Cc1cc(OC(C)C(=O)N2CCc3ccccc32)ccc1Cl` (stereo not drawn) showed an XC50 of 0.785 µM.

In the case of `COc1ccc(CCn2c(=N)c(C(=O)NCc3cccnc3)cc3c(=O)n4ccccc4nc32)cc1`, the XC50 was 0.883 µM. The same measure, in the same setting: the value for `Cc1cccc2nc(-c3ccc(-c4cccc(NC(=O)NCc5cccc(F)c5)c4)cc3)[nH]c12` was 0.853 µM; that for `COC(=O)c1cccc(NC(=O)NCCNc2ccnc(Nc3ccc(F)cc3)n2)c1` was 0.837 µM.

The compound `COc1cc(-c2nc(-c3ccncc3)c(-c3ccc4c(c3)CCC4=NO)[nH]2)ccc1OCCN1CCN(C)CC1` yielded an XC50 of 0.756 µM.

In the case of `COc1ccc2nccc([C@@H](O)CN3CCC(NC(=O)/C=C/c4cccc(-c5ccccc5)c4)CC3)c2c1`, the XC50 is 0.248 µM. In turn, `Cc1ccc(C)c(C=CC(=O)NC2CCC(CN3CCC(c4c[nH]c5ccccc45)CC3)CC2)c1` (stereo not drawn) showed an XC50 of 0.765 µM. On the same count and under the same terms, the value for `O=C(NC1CCN(CCCc2ccccc2)CC1)c1ccc(-c2cccc(C(F)(F)F)c2)s1` was 0.894 µM; that for `COC(=O)/C=C/c1ccc(CC(C)NCC(O)c2cccc(Cl)c2)cc1` (stereo not drawn) was 0.751 µM; that for `Cc1cc(N)nc2ccc(-c3cccc(CN)c3)cc12` was 0.707 µM.

Consider `O=C(Nc1ccc(Cl)cc1)Nc1cccc(-c2ccc(-c3nc4cc(F)ccc4[nH]3)cc2)c1`, for which the XC50 amounted to 0.0475 µM. `OC(CNc1ccnc(Nc2ccc(Cl)cc2)n1)c1cccc(C(F)(F)F)c1` (stereo not drawn) displayed an XC50 of 0.676 µM. In the case of `O=C(Nc1ccc(CCNCCCc2ccccc2)cc1)Nc1ccc(Cl)c(Cl)c1`, the XC50 was 0.273 µM. On the same count and under the same terms, the value for `Cc1cc(NC(c2ccc(Cl)cc2)c2ccc3cccnc3c2O)no1` (stereo not drawn) was 1.09 µM.

In the case of `C=C[C@H]1CN(CCCCCCC)CC[C@H]1CC(=O)Nc1cnnc2ccc(OC)cc12`, the XC50 was 0.529 µM.
